Assay [1] has as its target T1, Prostaglandin G/H synthase 1 (Ovis aries, UniProt P05979).
T1 sequence (P05979 whole entry): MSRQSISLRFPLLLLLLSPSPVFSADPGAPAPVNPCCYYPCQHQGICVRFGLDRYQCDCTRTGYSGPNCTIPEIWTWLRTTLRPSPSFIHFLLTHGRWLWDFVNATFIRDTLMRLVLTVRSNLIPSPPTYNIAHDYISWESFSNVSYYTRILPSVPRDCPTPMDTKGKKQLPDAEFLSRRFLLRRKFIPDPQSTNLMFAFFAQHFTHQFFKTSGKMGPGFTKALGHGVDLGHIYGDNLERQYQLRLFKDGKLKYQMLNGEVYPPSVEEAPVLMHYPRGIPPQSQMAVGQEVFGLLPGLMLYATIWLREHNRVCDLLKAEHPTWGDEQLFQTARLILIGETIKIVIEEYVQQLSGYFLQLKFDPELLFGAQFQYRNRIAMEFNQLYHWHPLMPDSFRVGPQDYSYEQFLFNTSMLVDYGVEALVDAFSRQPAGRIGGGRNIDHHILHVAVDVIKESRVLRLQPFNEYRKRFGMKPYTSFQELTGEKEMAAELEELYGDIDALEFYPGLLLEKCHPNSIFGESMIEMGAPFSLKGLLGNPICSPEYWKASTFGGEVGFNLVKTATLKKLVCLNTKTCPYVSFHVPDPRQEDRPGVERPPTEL
The experiment in a line: Inhibition of ovine COX1 using arachidonic acid substrate by TMPD dye based colorimetry.

For assay [2], the target named is T2, Prostaglandin G/H synthase 2 (Homo sapiens, UniProt P35354).
T2 sequence (P35354 whole entry): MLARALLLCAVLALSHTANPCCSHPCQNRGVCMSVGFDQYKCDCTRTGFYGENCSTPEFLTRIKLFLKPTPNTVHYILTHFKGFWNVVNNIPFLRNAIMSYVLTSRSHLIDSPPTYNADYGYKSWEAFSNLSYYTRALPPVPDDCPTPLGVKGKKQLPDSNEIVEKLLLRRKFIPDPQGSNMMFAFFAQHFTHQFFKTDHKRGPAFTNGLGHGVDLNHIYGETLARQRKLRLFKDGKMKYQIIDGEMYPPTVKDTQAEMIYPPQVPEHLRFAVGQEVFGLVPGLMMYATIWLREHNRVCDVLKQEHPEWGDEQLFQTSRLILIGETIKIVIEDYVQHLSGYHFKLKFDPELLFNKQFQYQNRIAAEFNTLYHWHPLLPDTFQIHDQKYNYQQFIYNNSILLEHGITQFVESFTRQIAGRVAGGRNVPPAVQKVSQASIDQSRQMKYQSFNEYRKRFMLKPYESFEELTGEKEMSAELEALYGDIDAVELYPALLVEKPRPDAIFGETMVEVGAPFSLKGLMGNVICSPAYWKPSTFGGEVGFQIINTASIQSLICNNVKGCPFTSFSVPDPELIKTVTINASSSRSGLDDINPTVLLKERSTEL
The experiment in a line: Inhibition of human recombinant COX2 by enzyme immuno assay.

Assay [3] in a line: Selectivity index, ratio of IC50 for ovine COX1 to IC50 for human COX2.
Assay [4] deals with T1, Prostaglandin G/H synthase 1. Briefly: Inhibition of ovine COX1 by fluorescence based assay.
For assay [5], the target named is T2, Prostaglandin G/H synthase 2. The experiment in a line: Inhibition of human COX2 by fluorescence based assay.
The target is the same in assay [6]. Briefly: Inhibition of human COX2 assessed as reduction in PGE2 production incubated for 2 mins using arachidonic acid substrate by enzyme immuno assay.
Assay [7] addresses T3, Prostaglandin G/H synthase 1 (Homo sapiens, UniProt P23219). The experiment in a line: Inhibition of human COX1 assessed as reduction in PGE2 production incubated for 2 mins using arachidonic acid substrate by enzyme immuno assay.
The species named for assay [8] is Homo sapiens. Briefly: Selectivity index, ratio of IC50 for human COX1 to IC50 for human COX2.
Assay [9] deals with T2, Prostaglandin G/H synthase 2. Briefly: Inhibition of human recombinant COX2 assessed as reduction in […] production incubated for 10 mins using arachidonic acid substrate by enzyme immuno assay.
Assay [10] has the same target. The experiment in a line: Inhibition of COX2 (unknown origin).
The target in assay [11] is T3, Prostaglandin G/H synthase 1. The experiment in a line: Inhibition of COX1 (unknown origin).
Assay [12] is filed under the species Homo sapiens. The experiment in a line: Selectivity index, ratio of IC50 for COX1 (unknown origin) to IC50 for COX2 (unknown origin).
In assay [13] the target is T2, Prostaglandin G/H synthase 2. Briefly: Inhibition of COX2 in human lympho-monocytes suspension assessed as reduction in LPS-induced PGE2 production pre-incubated for 30 mins before LPS stimulation for 24 hrs by EIA method. Type of assay: cell-based.
For a further assay, the species on record is Ovis aries. Briefly: Selectivity index, ratio of IC50 for ovine COX1 to IC50 for ovine COX2.
Assay [14] addresses T4, Prostaglandin G/H synthase 1 (Ovis aries) (UniProt P05979).
T4 sequence (whole entry): T1 sequence (P05979 whole entry)
Briefly: Inhibition of ovine COX1 at 10 ug/ml using arachidonic acid substrate by TMPD dye based colorimetry.

The target in assay [15] is T5, Prostaglandin G/H synthase 2 (Ovis aries) (UniProt P79208).
T5 sequence (whole entry): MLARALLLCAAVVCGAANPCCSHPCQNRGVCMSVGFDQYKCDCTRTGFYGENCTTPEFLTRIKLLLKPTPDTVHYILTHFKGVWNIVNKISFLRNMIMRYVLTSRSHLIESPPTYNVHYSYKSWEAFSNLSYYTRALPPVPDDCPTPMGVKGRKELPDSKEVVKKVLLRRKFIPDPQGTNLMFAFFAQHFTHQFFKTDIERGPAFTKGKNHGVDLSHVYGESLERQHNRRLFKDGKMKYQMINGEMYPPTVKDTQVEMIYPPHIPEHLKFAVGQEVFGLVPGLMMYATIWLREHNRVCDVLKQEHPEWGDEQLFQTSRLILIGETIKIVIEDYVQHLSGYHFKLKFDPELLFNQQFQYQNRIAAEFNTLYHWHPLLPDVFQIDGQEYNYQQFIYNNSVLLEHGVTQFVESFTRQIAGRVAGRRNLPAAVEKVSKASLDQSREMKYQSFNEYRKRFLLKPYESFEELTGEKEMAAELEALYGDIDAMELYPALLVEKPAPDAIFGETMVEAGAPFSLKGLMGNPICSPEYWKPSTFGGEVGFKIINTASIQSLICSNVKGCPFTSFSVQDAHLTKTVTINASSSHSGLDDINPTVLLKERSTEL
The settings on record: 10 ug/ml.
Description: Inhibition of ovine COX2 at 10 ug/ml using arachidonic acid substrate by TMPD dye based colorimetry

The target in assay [16] is T1, Prostaglandin G/H synthase 1. The experiment in a line: Inhibition of ovine recombinant COX1 by enzyme immuno assay.
For assay [17] the target is unchanged. The experiment in a line: Inhibition of ovine COX1 by enzyme chemiluminescence assay.
Assay [18] has as its target T6, Prostaglandin G/H synthase 2 (Ovis aries, UniProt P79208).
T6 sequence (P79208 whole entry): T5 sequence (whole entry)
Briefly: Inhibition of ovine COX2 by enzyme chemiluminescence assay.

The structures appear in SMILES notation.

T3 sequence (P23219 whole entry): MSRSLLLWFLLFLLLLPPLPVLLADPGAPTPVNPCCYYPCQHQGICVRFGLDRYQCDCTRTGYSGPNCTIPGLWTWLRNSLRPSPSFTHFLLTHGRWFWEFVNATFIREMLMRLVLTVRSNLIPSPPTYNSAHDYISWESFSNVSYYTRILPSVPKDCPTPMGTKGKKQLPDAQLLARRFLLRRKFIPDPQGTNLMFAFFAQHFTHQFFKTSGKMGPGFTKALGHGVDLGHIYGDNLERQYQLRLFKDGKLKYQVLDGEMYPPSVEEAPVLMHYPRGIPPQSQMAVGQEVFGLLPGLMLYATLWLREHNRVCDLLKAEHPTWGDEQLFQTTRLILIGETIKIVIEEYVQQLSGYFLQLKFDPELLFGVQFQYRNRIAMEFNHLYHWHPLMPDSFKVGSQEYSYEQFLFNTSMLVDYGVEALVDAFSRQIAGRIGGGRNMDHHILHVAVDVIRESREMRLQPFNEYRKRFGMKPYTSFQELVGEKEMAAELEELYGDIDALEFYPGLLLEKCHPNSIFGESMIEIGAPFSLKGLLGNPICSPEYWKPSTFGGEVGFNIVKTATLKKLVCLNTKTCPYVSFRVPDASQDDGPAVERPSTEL

In general, IC50 refers to the concentration that inhibits the measured activity by half. In the case of `Cc1ccc(-c2nn(Cc3nnc(-c4ccccc4[N+](=O)[O-])o3)c(=O)c3ccccc23)cc1C`, the IC50 in [1] was over 50000 nM.

For `CS(=O)(=O)c1ccc(-n2nc(-c3ccc(O)cc3)cc2-c2ccc(C(F)(F)F)cc2)cc1`, the IC50 in [2] was found to be 970 nM. Also, in assay [3], the Ratio IC50 was found to be 6.08.

In the case of `Cc1ccc(-c2c(-c3ccc(S(C)(=O)=O)cc3)c3cccc4ccn2c43)cc1`, the IC50 in assay [4] was over 100000 nM; in assay [5] it was 20 nM. Further, the Ratio IC50 in assay [3] was over 5000.

Consider `NS(=O)(=O)c1ccc(N2N=C(c3ccc(N4CCOCC4)cc3)CC2c2ccc(F)cc2F)cc1` (stereo not given), for which the values for the IC50 in assay [6] and in assay [7] were 80 nM and 36100 nM, respectively. Further, the Ratio IC50 in the assay filed under Homo sapiens [8] was 451.

`CS(=O)(=O)c1ccc(C2NN=C(c3ccc([N+](=O)[O-])cc3)O2)cc1` (stereo not given): the Ratio IC50 in assay [3] amounted to 133. Further, the IC50 in [9] was 480 nM.

For `CS(=O)(=O)c1ccc(C2C(c3ccccc3)=NOC23COc2ccccc2C3=O)cc1` (stereo not given), the values for the concentration for half-maximal inhibition (IC50) in [10] and in assay [11] were 90 nM and 10500 nM, respectively. In addition, the Ratio IC50 in the assay filed under Homo sapiens [12] was determined as 116.

In the case of `Cc1ccc(Nc2c(F)cccc2Cl)c(Cc2nnn[nH]2)c1`, the half-inhibitory concentration (IC50) in [13] is 14 nM.

What is called inhibition is the percentage by which the read-out fell short of the control. Regarding `Cc1cc(C)c2c(n1)nn1c(/C=C/c3ccc([N+](=O)[O-])cc3)c(C)[nH]c21`, the IC50 in [1] is 63800 nM. The Ratio IC50 in the assay listed under Ovis aries worked out at 133. Also, the inhibition in [14] came to 3.92%; in [15], 76%.

Turning to `CCOc1ccc(-c2cc(-c3ccc(C(F)(F)F)cc3)n(-c3ccc(S(C)(=O)=O)cc3)n2)cc1`, the half-inhibitory concentration (IC50) in assay [2] stood at 970 nM; in assay [16] it was 5600 nM. Besides, the Ratio IC50 in assay [3] worked out at 5.77.

On to `CS(=O)(=O)c1ccc(-c2cc(Cn3ccnc3)c3ccc4c(c3n2)CCCC4)cc1`, for which the Ratio IC50 in the assay listed under Ovis aries was 548. In addition, the 50% inhibitory concentration (IC50) in [17] came to 34500 nM; in assay [18] it was 63 nM.

The values above are taken from ChEMBL document CHEMBL4138061, “Structure-activity relationships for the synthesis of selective cyclooxygenase 2 inhibitors: an overview (2009-2016)” (Medchemcomm, 2017).
